{"source": "paper PMC2758719", "about": "(Molecular Systems Biology, 2009)", "biological_target": "T1, PfkA (Escherichia coli, UniProt P0A796)", "T1 sequence (P0A796 1-320)": "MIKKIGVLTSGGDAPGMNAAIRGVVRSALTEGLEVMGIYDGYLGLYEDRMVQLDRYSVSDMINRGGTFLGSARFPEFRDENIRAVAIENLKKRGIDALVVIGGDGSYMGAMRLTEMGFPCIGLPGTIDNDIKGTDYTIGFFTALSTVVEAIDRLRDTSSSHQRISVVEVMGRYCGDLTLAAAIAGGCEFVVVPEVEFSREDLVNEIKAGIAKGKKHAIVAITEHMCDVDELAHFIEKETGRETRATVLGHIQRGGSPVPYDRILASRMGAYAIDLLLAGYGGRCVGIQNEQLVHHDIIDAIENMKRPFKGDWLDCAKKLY", "test": "CE-MS quantification of metabolites after incubation", "format": "biochemical", "conditions": "5 mM S7P, 2 mM ATP, 2 uM enzyme, 50 mM MOPS potassium buffer, 37 °C, 1 h", "data": [{"smiles": "O=P(O)(O)OC[C@@H](O)[C@H]1OC(O)(CO)[C@@H](O)[C@@H]1O", "note": "(stereo partly shown) [S7P]", "values": [{"measurement": "CE-MS quantification of metabolites after incubation", "value": "When S7P and ATP were incubated with PfkA, S7P and ATP were consumed"}]}]}
